Test [1] deals with wild type L. donovani LdAG83 promastigotes. Description: Leishmania cell viability (MTS) assay. In kind it is cell-based, Leishmania donovani. Conditions: Leishmania donovani, read-out: IC50(μM) of synthetic flavonoid, LdAG83. As to the method: (§1) Cell lines and Cell Culture. Promastigotes of Leishmania enriettii (LePentR50, Le wild type, LeMDR1 −/− and LeMDR1-overexpressed LeV160 mutants) and Leishmania donovani (LdAG83, Ld2001 and Ld39) were employed in this study. The former is a natural infective strain of guinea pig and the latter is a clinical strain, which may cause visceral leishmaniasis in human. Both strains were cultured in Schneider's Drosophila Medium (Invitrogen), pH 6.9 supplemented with 10% (v/v) heat inactivated fetal calf serum (Hyclone) with 4 mM glutamine (Sigma) and 25 μg/mL gentamicin solution (Invitrogen), at 27° C. for 4 days (Cloning and functional analysis of an extrachromosomally amplified multidrug resistance-like gene in Leishmania enriettii. Mol. Biochem. Parasitol 1993, 60, 195-208). […]
(§2) The viability of promastigotes was determined by the Cell Titer 96® Aqueous Assay (Promega) that employs a tetrazolium compound (MTS) and electron coupling reagent, phenazine methosulfate (PMS). Promastigotes were seeded into 96-well flat bottom microtiter plate at 1×10^5 cells per well in a final volume of 100 μL medium. To determine the cytotoxic effects of flavonoid dimers to the parasites, various concentrations of flavonoid dimers were added to the promastigotes. To determine the reversal effects of flavonoid dimers with different spacer lengths, various concentrations of antileishmanial drugs, one of pentamidine or SSG, vinblastine and puromycin was added to the wells with or without flavonoid dimers. The parasites were incubated at 27° C. for 72 hrs. Each concentration of antileishmanials with or without the flavonoid dimers was tested in triplicates in each experiment. A 2 mg/mL MTS and 0.92 mg/mL PMS were mixed at a ratio of 20:1 (MTS: PMS). After 72-hr incubation, 10 μL of MTS:PMS mixture was added into each well of microtiter plate. The plate was then incubated at 27° C. for 4 hrs for color development. After 4 hrs of incubation, the OD values were determined at 490 nm using automatic microtiter plate reader (Bio-Rad).

Test [2] deals with SSG-resistant L. donovani Ld39 promastigotes. Nature of the test: microbe, parasite or virus in culture. In kind it is cell-based, Leishmania donovani. Particulars: for IC50: Leishmania donovani, 72 h, read-out: IC50(μM) of synthetic flavonoid, Ld39; for SSG resistance modulating activity: Ld39, FIG. 14B. The procedure:
as §1, §2

Test [3] concerns pentamidine-resistant L. enriettii LePentR50 promastigotes. Description: microbe, parasite or virus in culture. Conditions: for IC50: Leishmania enriettii, 72 h, read-out: IC50(μM) of synthetic flavonoid, LePentR50, cytotoxicity of compound alone, 72 hrs; for pentamidine sensitization: LePentR50, FIG. 18A. As to the method:
Cell lines and Cell Culture. Promastigotes of Leishmania enriettii (LePentR50, Le wild type, LeMDR1 −/− and LeMDR1-overexpressed LeV160 mutants) and Leishmania donovani (LdAG83, Ld2001 and Ld39) were employed in this study. The former is a natural infective strain of guinea pig and the latter is a clinical strain, which may cause visceral leishmaniasis in human. Both strains were cultured in Schneider's Drosophila Medium (Invitrogen), pH 6.9 supplemented with 10% (v/v) heat inactivated fetal calf serum (Hyclone) with 4 mM glutamine (Sigma) and 25 μg/mL gentamicin solution (Invitrogen), at 27° C. for 4 days (Cloning and functional analysis of an extrachromosomally amplified multidrug resistance-like gene in Leishmania enriettii. Mol. Biochem. Parasitol 1993, 60, 195-208).
Promastigotes of LeV160 were culture in the presence of 160 μg/mL vinblastine. No pentamidine and vinblastine (Sigma) was added to the Le wild type and LeMDR1 −/− mutant.
as §2

Test [4] relates to MDA435/LCC6 MDR cells. Nature of the test: cells. Conditions: for reversing activity compared with verapamil: LCC6MDR, taxol, 5 μM; for doxorubicin sensitization / reversing effect on taxol resistance: MDA435/LCC6 MDR; for doxorubicin sensitization: dimers; for reversing effect on taxol resistance: dimers at 5 μM. As to the method: MDA435/LCC6 and P388 (both parent and MDR subtype) were maintained in DMEM and RPMI 1640 culture medium supplemented with 10% FBS, respectively. RPMI 1640 media also contained 100 units/ml penicillin and 100 μg/ml streptomycin. Cells were cultured at 37° C. in a humidified atmosphere with 5% CO2. A solution of 0.05% trypsin-EDTA was used to detach the MDA435/LCC6 (both wild type and MDR subtype) cells.
Cell proliferation assay. MDA435/LCC6 and P388 (both parent and MDR subtype) cells were seeded at 2000 and 5000 cells per well, respectively, in 96-well plates. Varying concentrations of anticancer drugs (Doxorubicin, Daunorubicin, Vincristine, Vinblastine, taxol, Mitoxantrone) with or without the flavonoid dimers were added in a final volume of 200 μl and cells were grown for 4 and 3 days for MDA435/LCC6 and P388 (both parent and MDR subtype) cells, respectively. For MDA435/LCC6 (both parent and MDR subtype), the corresponding drugs were added after cell attachment (24 hr incubation). To measure cell proliferation, the cell Titer 960 Aqueous Assay (Promega) was used according to the manufacturer's instructions. Briefly, MTS (2 mg/ml) and PMS (0.92 mg/ml) were mixed in a ratio of 20:1. 30 μl MTS/PMS mixture was added into each well and incubated for 2 hours at 37° C. Optical absorbance at 490 nm was then recorded using an ELISA microtiter plate reader (Bio-Rad). Each experiment was done at least in triplicate and repeated twice. Cytotoxicity of the anticancer drugs was expressed as the fraction of the cells survived relative to the untreated DMSO (0.05%) solvent controls.
MDA435/LCC6 is an estrogen-independent human breast cancer cell line. Its MDR subtype (MDA435/LCC6 MDR) was generated by transducing a retroviral vector directing the constitutive expression of the human MDR1 cDNA, producing a cell line with a classical MDR1 resistance pattern (MDA435/LCC6 and MDA435/LCC6MDR1: ascites models of human breast cancer. Br J Cancer 1996, 73, 154-161). The ability of the apigenin dimers of this invention to reverse taxol resistance in MDA435/LCC6 MDR cells were tested. […] Apigenin monomers 10a and 10b at 10 μM were used as the negative controls.

In test [5] the test system is P388/ADR cells. Description: Doxorubicin accumulation. In kind it is cell-based, murine. Particulars: monomer 10b at double concentration of the dimers, FIG. 11A. The procedure:
For P388 (both parent and MDR subtype) cells, 1 ml (10^5 cells) confluent cells were aliquot into Eppendorf tube and pre-incubated with flavone dimers for 30 min at 37° C. Doxorubicin (final concentration of 10 μM) was then added and incubated for 2 h at 37° C. at a final concentration of 10 μM. The cell pellets were washed 3 times with cold PBS by using an Eppendorf micro-centrifuge and lysed with 0.3N HCL in 50% ethanol, and sonicated for 30s. After centrifugation at 10000 rpm/min for 3 min, the supernatant was saved. The fluorescence of doxorubicin was measured using a spectrofluorometer (λexcite=470 nm, λemit=585 nm).

By IC50 is commonly meant the midpoint of a concentration-inhibition curve.

Molecules are shown by their SMILES. Where two headings read alike, the source gives them in different places.

Regarding `O=c1cc(-c2ccc(OCCOCCOCCOCCOCCOCCOCCOCCOCCOc3ccc(-c4cc(=O)c5c(O)cc(O)cc5o4)cc3)cc2)oc2cc(O)cc(O)c12` [Compound 9i, 1,28-Bis[4′-((5,7-dihydroxy)-4H-chromen-4-on-2-yl)phenyl]-1,4,7,10,13,16,19,22,25,28-decaoxaoctacosane], the IC50 stood at 10 ± 0.3 µM in test [1] (72 h) and 14 ± 0.1 µM in test [2].

Turning to `O=c1cc(-c2ccc(O)cc2)oc2cc(O)cc(O)c12` [Apigenin, reference compound], the IC50 in test [3] amounted to 55 ± 2.6 µM; in test [1] (cytotoxicity of compound alone, 72 hrs) it was 32 ± 4.1 µM; in test [2] it was 43 ± 5.9 µM. Besides, the “SSG resistance modulating activity” value in test [2] (12 μM) is on record as “did not give any significant modulating activity”.

As for `O=c1cc(-c2ccc(OCCOCCOCCOCCOc3ccc(-c4cc(=O)c5ccc(F)cc5o4)cc3)cc2)oc2cc(F)ccc12` [Compound 35b, 1,13-Bis[4′-(7-fluoro-4H-chromen-4-on-2-yl)phenyl]-1,4,7,10,13-pentaoxamidecane], the “reversing activity compared with verapamil” value in test [4] is recorded as “stronger reversing activity than verapamil”.

`Cc1ccc2c(=O)cc(-c3ccc(OCCOCCOCCOCCOc4ccc(-c5cc(=O)c6ccc(C)cc6o5)cc4)cc3)oc2c1` [Compound 35g, 1,13-Bis[4′-(7-methyl-4H-chromen-4-on-2-yl)phenyl]-1,4,7,10,13-pentaoxamidecane]: in test [4], the “reversing activity compared with verapamil” value is given as “stronger reversing activity than verapamil”.

Turning to `C=C[C@H]1C[N@@]2CC[C@H]1C[C@H]2[C@H](O)c1ccnc2ccc(OC)cc12` [quinine, reference compound], the pentamidine sensitization result in test [3] is reported as “less than half-fold sensitization”.

For `O=c1cc(-c2ccc(OCCOCCOCCOCCOc3ccc(-c4cc(=O)c5cc(Cl)cc(Cl)c5o4)cc3)cc2)oc2c(Cl)cc(Cl)cc12` [Compound 35f, 1,13-Bis[4′-(6,8-dichloro-4H-chromen-4-on-2-yl)phenyl]-1,4,7,10,13-pentaoxamidecane], in test [4], the “reversing activity compared with verapamil” value is “stronger reversing activity than verapamil”.

`CCN(CC)CCCC(C)Nc1c2ccc(Cl)cc2nc2ccc(OC)cc12` (stereo not drawn) [quinacrine, reference compound]: the pentamidine sensitization in test [3] is recorded as approximately 4.5 fold.

Regarding `Cc1ccc2oc(-c3ccc(OCCOCCOCCOCCOc4ccc(-c5cc(=O)c6cc(C)ccc6o5)cc4)cc3)cc(=O)c2c1` [Compound 35h, 1,13-Bis[4′-(6-methyl-4H-chromen-4-on-2-yl)phenyl]-1,4,7,10,13-pentaoxamidecane], the “reversing activity compared with verapamil” value in test [4] was “stronger reversing activity than verapamil”.

Consider `O=c1cc(-c2ccc(OCCOCCOCCOCCOCCOc3ccc(-c4cc(=O)c5c(O)cc(O)cc5o4)cc3)cc2)oc2cc(O)cc(O)c12` [Compound 9e, 1,16-Bis[4′-((5,7-dihydroxy)-4H-chromen-4-on-2-yl)phenyl]-1,4,7,10,13,16-hexaoxahexadecane], for which the doxorubicin sensitization entry in test [4] was “very little or no doxorubicin sensitization”. For the same molecule, the “reversing effect on taxol resistance” value in test [4] is on record as “little or no reversing effect”. In addition, in test [5], the “activity on doxorubicin accumulation” value is “little or no activity at all”. Also, the IC50 in test [3] stood at 70 ± 3 µM; in test [1] (72 h), 30 ± 1.2 µM; in test [2], 42 ± 2.3 µM.

With `O=c1cc(-c2ccc(OCCOCCOCCOCCOCCOCCOc3ccc(-c4cc(=O)c5c(O)cc(O)cc5o4)cc3)cc2)oc2cc(O)cc(O)c12` [Compound 9f, 1,19-Bis[4′-((5,7-dihydroxy)-4H-chromen-4-on-2-yl)phenyl]-1,4,7,10,13,16,19-heptaoxanonadecane], the doxorubicin sensitization result in test [4] is on record as “very little or no doxorubicin sensitization”. Also, the “reversing effect on taxol resistance” value in test [4] is reported as “little or no reversing effect”. Further, the IC50 in test [3] turned out to be 40 ± 5.3 µM; in test [1] (72 h), 11 ± 2 µM; in test [2], 13 ± 0.6 µM.

As to `O=c1cc(-c2ccc(OCCOCCOCCOCCOc3ccc(-c4cc(=O)c5ccccc5o4)cc3)cc2)oc2ccccc12` [Compound 35a, 1,13-Bis[4′-(4H-chromen-4-on-2-yl)phenyl]-1,4,7,10,13-pentaoxamidecane], the “reversing activity compared with verapamil” value in test [4] is “stronger reversing activity than verapamil”.

`O=c1cc(-c2ccc(OCCOc3ccc(-c4cc(=O)c5c(O)cc(O)cc5o4)cc3)cc2)oc2cc(O)cc(O)c12` [Compound 9a, 1,4-Bis[4′-((5,7-dihydroxy)-4H-chromen-4-on-2-yl)phenyl]-1,4-dioxabutane]: the doxorubicin sensitization entry in test [4] was “very little or no doxorubicin sensitization”. For the same molecule, in test [4], the “reversing effect on taxol resistance” value is “little or no reversing effect”. The “activity on doxorubicin accumulation” value in test [5] was “little or no activity at all”. Besides, the IC50 in test [3] was more than 200 µM; in test [1] (72 h) it was 95 ± 3.2 µM; in test [2] it was 117 ± 10 µM. For the same molecule, the “SSG resistance modulating activity” value in test [2] (dimers at 6 μM) was “did not show substantial SSG resistance modulating activity”.

Regarding `COC(=O)[C@H]1[C@H]2C[C@@H]3c4[nH]c5cc(OC)ccc5c4CCN3C[C@H]2C[C@@H](OC(=O)c2cc(OC)c(OC)c(OC)c2)[C@@H]1OC` [reserpine, reference compound], the pentamidine sensitization in test [3] is given as approximately 3.2 fold.

For the molecule `C=C[C@H]1C[N@@]2CC[C@H]1C[C@@H]2[C@@H](O)c1ccnc2ccc(OC)cc12` [quinidine, reference compound], in test [3], the pentamidine sensitization entry is “less than half-fold sensitization”.
